Results taken from US20150285805A1, “BIOMARKERS OF MULTIPLE MYELOMA DEVELOPMENT AND PROGRESSION” (priority 2012, published 2015).

Assays:
T cells = settings: cited from earlier work
[1] = cited from earlier work
MM cells = settings: phosphocholine administration; cited from earlier work
[2] = system: microvascular endothelial cell; settings: in vitro; cited from earlier work
MM.1S myeloma cell line = test: AnnexinV-PI cytometry, apoptosis/viability upon LPC supplementation; assay type: cell-based; settings: 10 μM LPC, 24 h, vs vehicle
Description: (§1) FIG. 5. Effects of LPC supplementation on MM cells viability. A) Viability of myeloma cell lines MM.1S or OPM2 or three samples of myeloma patient-derived CD138 positive cells upon 24 h incubation with vehicle or 10 μM LPC, as fold change of annexinV-propidium iodide double negative cells relative to vehicle alone. B) MTT assay of OPM2 cells upon 72 h supplementation with LPC, one representative experiment (n=6). Y axis: median 570-655 optic density (O.D.); error bars: standard deviation; asterisks: p<0.05 at two-tailed t-test for paired samples.
(§2) Myeloma cell lines (OPM2 and MM.1S) were cultured in RPMI1640 media (Gibco), supplemented with glutamax (1 mM), penicillin (100 U/ml), and streptomycin (100 μg/ml). Primary MM cells were obtained by CD138 positive immunomagnetic selection (Miltenyi) from bone marrow mononuclear cells. CD138^+ cells were cultured in 10% FBS and IL-6 (2 ng/ml). Apoptosis was detected by AnnexinV-PI (BD) cytometry (AccuriC6 cytometer, analyzed with FCS-express). For MTT assays, OPM2 cells were cultured with or without 10 μM LPC and FCS, incubated with 5 mg/ml MTT (Sigma), dissolved with DMSO and measured for ABS at 570-655 nm with an ELISA reader (Biorad).

OPM2 myeloma cell line = test: as above; assay type: cell-based; settings: 10 μM LPC, 24 h, vs vehicle
Description: as §1, §2

[3] = system: myeloma patient-derived CD138 positive cells; test: as above; assay type: cell-based; settings: 10 μM LPC, 24 h, vs vehicle; three patient samples
Description: as §1, §2

OPM2 cells = test: MTT assay upon LPC supplementation; assay type: cell-based; settings: 10 μM LPC, 72 h, with or without FCS; particularly upon serum starvation
Description: as §1, §2

Nc1c(O)cccc1C(=O)CC(N)C(=O)O (stereo not shown) [3-hydroxykynurenine]
T cell depletion (T cells; in vitro and in vivo, transplanted mice): depleting in vitro and in vivo T cells | mismatched allograft tolerance (T cells; mouse, in vivo): promoting mismatched allograft tolerance

CNCC(=O)O [Sarcosine, Sarcosine (N-Methylglycine)]
cancer-promoting in vitro activities [1]: induction of migration, invasiveness, and up-regulation of pathogenic receptors

C[N+](C)(C)CCOP(=O)([O-])O [phosphocholine]
rescue of MM cells from the mevalonate pathway inhibitor apomine (MM cells): can rescue MM cells

C3f: fragment of the C3 complement factor, sequence SSKITHRIHWESASLLR; detected fragment HWESASLL (listed as Homo sapiens)
IGF1 signaling and microvascular endothelial cell proliferation [2]: actively modulate | TGFβ-1 secretion by endothelial cells [2]: enhance TGFβ-1 secretion

lysophosphocholines [LPC]
apoptosis (annexinV-propidium iodide) (MM.1S myeloma cell line): decrease apoptosis | apoptosis (annexinV-propidium iodide) (OPM2 myeloma cell line): decrease apoptosis | apoptosis (annexinV-propidium iodide) [3]: decrease apoptosis | viability (MTT, 570-655 O.D.) (OPM2 cells): increase viability
